For five molecules, MIC results are on record in patent US20240425464A1, “Substituted Monohydrazides as Potent Antifungal Agents” (University of Kentucky Research Foundation, priority 2023, published 2024).

≈ marks a conversion by molar mass, not a printed value. Like-named read-outs stand apart in the source and are kept apart here.

For the experiment, the system named is Candida auris strain AR Bank #384 (K). Briefly: MIC determination by in vitro antifungal assay. The experiment is classed as cell-based. The procedure: The antifungal agent amphotericin B (AmB) was purchased from VWR (Radnor PA, USA). AmB was dissolved in DMSO at a final concentration of 5 mg/mL and was stored at −20° C., protected from light. Candida albicans American Type Culture Collection (ATCC) 10231 (strain A), C. albicans ATCC 64124 (B), and C. albicans ATCC MYA-2876 (C) were obtained from Utah State University. C. albicans ATCC 90819 (D), C. albicans ATCC MYA-2310 (E), C. albicans ATCC MYA-1237 (F), C. albicans ATCC MYA-1003 (G), Candida glabrata ATCC 2001 (H), Candida krusei ATCC 6258 (I), Candida parapsilosis ATCC 22019 (J), Cryptococcus neoformans ATCC MYA-895 (M), Aspergillus terreus ATCC MYA-3633 (N), and Aspergillus flavus ATCC MYA-3631 (0) were obtained from the American Type Culture Collection (ATCC; Manassas, VA, USA). Aspergillus nidulans ATCC 38163 (P) was obtained from University of Kentucky. Clinically derived Aspergillus fumigatus NRRL 163 (Q), A. fumigatus NRRL 5109 (R), and A. fumigatus NRRL 6113 (S) were obtained from Northern Regional Research Laboratory (NRRL). Candida auris 384 (K), C. auris 390 (L), and fungal strains 381-400 (including 10 C. auris (AR Bank #381-390), 3 Candida duobushaemulonii (AR Bank #391, AR Bank #392, and AR Bank #394), 2 Candida haemulonii (AR Bank #393 and AR Bank #395), 1 Kodameae ohmeri (AR Bank #396), 1 C. krusei (AR Bank #397), 1 Candida lusitaniae (AR Bank #398), and 2 Saccharomyces cerevisiae strains (AR Bank #399 and AR Bank #400)) were part of a larger fungal library from the AR Bank maintained by the Centers for Disease Control and Prevention (CDC; Atlanta, GA, USA). Filamentous fungi and yeasts were cultivated at 35° C. in RPMI 1640 medium (with L-glutamine, without sodium bicarbonate, Sigma-Aldrich, St. Louis, MO) buffered to a pH of 7.0 with 0.165 M morpholinepropanesulfonic acid (MOPS) buffer (Sigma-Aldrich). For cytotoxicity assays, HepG2 and the mouse macrophage cell line J774A.1 were obtained from University of Kentucky. The human embryonic kidney cell line, HEK-293, was bought from the ATCC. Mammalian cells were grown in Dulbecco's Modified Eagle's Medium (DMEM) (from VWR) with 10% fetal bovine serum (FBS) (from VWR) and 1% Pen/Strep (from ATCC). Cell lines were cultured at 37° C. with 5% CO2 and passaged by trypsinization with 0.05% trypsin: 0.53 mM EDTA (from Sigma-Aldrich).
From the actively growing yeast culture, 100 µL were then transferred to 900 μL of RPMI 1640 medium and re-adjusted to achieve OD600 of 0.12 (˜1×10^6 CFU/mL). The cell suspension was further diluted to achieve 1:100 in RPMI 1640 medium.
Finally, the activity of these monohydrazides was explored against […] non-Candida strains: Cryptococcus neoformans ATCC MYA-895 (M), Aspergillus terreus ATCC MYA-3633 (N), Aspergillus flavus ATCC MYA-3631 (O), Aspergillus nidulans ATCC 38163 (P), Aspergillus fumigatus NRRL 163 (Q), A. fumigatus NRRL 5109 (R), and A. fumigatus NRRL 6113 (S) (Tables 1A and 1B). The double dilution method was used with concentrations ranging from 0.06 to 31.3 j·tg mL^−1 for monohydrazides 1a-9j, and the commercially available positive antifungal control amphotericin B (AmB).

The mark [1] stands for this setting: Candidozyma auris, C. auris AR Bank # 384 (K) (Table 2B), read-out: MIC.
The mark [2] stands for this setting: Candidozyma auris, strain K = C. auris AR Bank # 0384 (Tables 1A/1B), read-out: MIC.
[3] abbreviates: strain K = C. auris AR Bank # 0384 (Tables 1A/1B).

Regarding `COc1ccc(NNC(=O)c2ncc(F)cc2F)cc1` [Compound 7f], the MIC is, setting by setting: under setting [1], 0.98 µg/mL (≈ 3.51 µM); under setting [2], 3.9 µg/mL (≈ 14 µM).

For the molecule `C[C@@H]1[C@H](O)[C@@H](C)/C=C/C=C/C=C/C=C/C=C/C=C/C=C/[C@H](O[C@@H]2O[C@H](C)[C@@H](O)[C@H](N)[C@@H]2O)C[C@@H]2O[C@](O)(C[C@@H](O)C[C@@H](O)[C@H](O)CC[C@@H](O)C[C@@H](O)CC(=O)O[C@H]1C)C[C@H](O)[C@H]2C(=O)O` [AmB, amphotericin B, reference compound], the MIC came out at 1.95 μg/mL^−1 (C. auris AR Bank #384 (K)), 1.95 μg/mL^−1 (C. auris AR Bank # 384 (K) (Table 2B)) and 1.95 μg/mL^−1 under setting [3].

In the case of `COc1cccc(NNC(=O)c2ncc(F)cc2F)c1` [Compound 7c], the MIC under setting [2] came to 7.8 µg/mL (≈ 27.9 µM).

With `COc1ccc(NNC(=O)c2nc(F)ccc2F)cc1` [Compound 8f], the MIC is, setting by setting: under setting [1], 0.98 µg/mL (≈ 3.51 µM); under setting [2], 3.9 µg/mL (≈ 14 µM).

For `O=C(NNc1ccc(Cl)cc1)c1cnccn1` [Compound 9e], the MIC is reported as 1.95 μg/mL^−1 (C. auris AR Bank #384 (K)) and 1.95 μg/mL^−1 under setting [3].
